The target in the assay is T1, recombinant human Meningioma Expressed Antigen 5 (MGEA5), also referred to as O-GcNAcase (OGA) (Homo sapiens, UniProt O60502).
T1 construct: Full length OGA enzyme was purchased at OnGene (cat #TP322411); purchased OnGene (so in the source)
T1 sequence (O60502 1-916): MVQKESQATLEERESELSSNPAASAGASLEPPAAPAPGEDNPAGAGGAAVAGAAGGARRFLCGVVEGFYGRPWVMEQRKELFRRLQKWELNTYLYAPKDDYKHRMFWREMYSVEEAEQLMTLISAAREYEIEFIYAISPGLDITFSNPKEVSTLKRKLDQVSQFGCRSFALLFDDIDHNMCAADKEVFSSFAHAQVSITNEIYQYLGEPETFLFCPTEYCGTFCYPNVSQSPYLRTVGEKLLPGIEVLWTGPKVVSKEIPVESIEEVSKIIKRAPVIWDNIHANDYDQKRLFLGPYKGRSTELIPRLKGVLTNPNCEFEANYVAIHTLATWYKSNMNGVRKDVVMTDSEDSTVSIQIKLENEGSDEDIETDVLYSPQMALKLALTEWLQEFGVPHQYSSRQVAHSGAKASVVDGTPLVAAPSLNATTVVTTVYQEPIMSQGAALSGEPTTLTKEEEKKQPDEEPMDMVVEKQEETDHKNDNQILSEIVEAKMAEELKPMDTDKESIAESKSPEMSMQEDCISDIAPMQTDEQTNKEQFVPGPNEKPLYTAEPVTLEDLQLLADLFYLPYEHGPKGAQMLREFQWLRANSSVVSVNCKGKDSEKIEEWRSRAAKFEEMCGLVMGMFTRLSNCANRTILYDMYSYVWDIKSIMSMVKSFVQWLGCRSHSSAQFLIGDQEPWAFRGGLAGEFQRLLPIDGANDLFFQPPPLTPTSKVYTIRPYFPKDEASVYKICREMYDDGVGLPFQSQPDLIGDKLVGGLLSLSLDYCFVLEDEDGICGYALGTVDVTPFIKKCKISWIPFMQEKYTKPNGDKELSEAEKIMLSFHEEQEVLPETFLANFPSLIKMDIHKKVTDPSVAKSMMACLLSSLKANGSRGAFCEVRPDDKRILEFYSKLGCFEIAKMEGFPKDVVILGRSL
Nature of the assay: OGA biochemical assay (inhibition of FM-GlcNAc hydrolysis, fluorescence). The note with it: FM-GlcNAc substrate; for Emax: read-out: Enzymatic Emax (%); for IC50: read-out: Enzymatic hOGA, pIC50 (converted). From the text: The assay is based on the inhibition of the hydrolysis of fluorescein mono-β-D-N-Acetyl-Glucosamine (FM-GlcNAc) (Mariappa et al. 2015, Biochem J 470:255) by the recombinant human Meningioma Expressed Antigen 5 (MGEA5), also referred to as O-GcNAcase (OGA). The hydrolysis FM-GlcNAc (Marker Gene technologies, cat #M1485) results in the formation of B-D-N-glucosamineacetate and fluorescein. The fluorescence of the latter can be measured at excitation wavelength 485 nm and emission wavelength 538 nm. An increase in enzyme activity results in an increase in fluorescence signal. Full length OGA enzyme was purchased at OnGene (cat #TP322411). The enzyme was stored in 25 mM Tris.HCl, pH 7.3, 100 mM glycine, 10% glycerol at −20° C. Thiamet G and GlcNAcStatin were tested as reference compounds (Yuzwa et al. 2008 Nature Chemical Biology 4:483; Yuzwa et al. 2012 Nature Chemical Biology 8:393). The assay was performed in 200 mM Citrate/phosphate buffer supplemented with 0.005% Tween-20. 35.6 g Na2HPO4 2H2O (Sigma, #C0759) were dissolved in 1 L water to obtain a 200 mM solution. 19.2 g citric acid (Merck, #1.06580) was dissolved in 1 L water to obtain a 100 mM solution. pH of the sodiumphosphate solution was adjusted with the citric acid solution to 7.2. The buffer to stop the reaction consists of a 500 mM Carbonate buffer, pH 11.0. 734 mg FM-GlcNAc were dissolved in 5.48 mL DMSO to obtain a 250 mM solution and was stored at −20° C. OGA was used at a 2 nM concentration and FM-GlcNAc at a 100 uM final concentration. Dilutions were prepared in assay buffer.
50 nl of a compound dissolved in DMSO was dispensed on Black Proxiplate TM 384 Plus Assay plates (Perkin Elmer, #6008269) and 3 μl fl-OGA enzyme mix added subsequently. Plates were pre-incubated for 60 min at room temperature and then 2 μl FM-GlcNAc substrate mix added. […] Plates were briefly centrifuged for 1 min at 1000 rpm and incubate at room temperature for 6 h. To stop the reaction 5 μl STOP buffer were added and plates centrifuge again 1 min at 1000 rpm. Fluorescence was quantified in the Thermo Scientific Fluoroskan Ascent or the PerkinElmer EnVision with excitation wavelength 485 nm and emission wavelength 538 nm.
For analysis a best-fit curve is fitted by a minimum sum of squares method. From this an IC50 value and Hill coefficient was obtained. High control (no inhibitor) and low control (saturating concentrations of standard inhibitor) were used to define the minimum and maximum values.

Bounds are passed on as bounds.

Broadly, the Emax is the size of the effect at its maximum, as opposed to the concentration needed.

With `CCOc1cc(C(C)N2CCC[C@H](Cc3cc(C)nc(C)c3)C2)n(C)n1` (mixture of isomers) [Product 17], the Emax is 96% and the IC50 is 0.245 µM.
For `CCOc1cc(C(C)N2CCC[C@H](Cc3cc(C)nc(C)c3)C2)nn1C` (mixture of isomers) [Product 18], the Emax was 95% and the IC50 was 0.575 µM.
For the compound `CCOc1nc(C(C)N2CCC[C@H](Cc3cc(C)nc(C)c3)C2)cn1C` (mixture of isomers) [Product 24], the Emax was determined as 84% and the IC50 was 2 µM.
Taken in the same sequence, the figures for `COc1cc(C(C)N2CCC[C@H](Cc3cc(C)nc(C)c3)C2)on1` (mixture of isomers) [Product 29] were 86% and 1.26 µM.
For the compound `CC(=O)Nc1cc(C(C)N2CCC[C@H](Cc3cc(C)nc(C)c3)C2)cnc1C` (mixture of isomers) [Product 33], the maximal effect (Emax) was 99% and the IC50 was 0.234 µM.
For `COc1ncc(C(C)N2CCC[C@H](Cc3cc(C)nc(C)c3)C2)cc1F` (mixture of isomers) [Product 45], the Emax is 92% and the IC50 was 0.955 µM.
In the case of `CCOc1cccc(C(C)N2CCC[C@H](Cc3cc(C)nc(C)c3)C2)n1` (mixture of isomers) [Product 49], the maximal effect (Emax) was 98% and the IC50 is 0.219 µM.
Turning to `COc1ccc(C(C)N2CCC[C@H](Cc3cc(C)nc(C)c3)C2)cn1` (mixture of isomers) [Product 52], the Emax is 98% and the IC50 is 0.229 µM.
As for `COc1cc(C(C)N2CCC[C@H](Cc3cc(C)nc(C)c3)C2)ccn1` (mixture of isomers) [Product 53], the Emax came out at 99% and the IC50 was 0.282 µM.
For `Cc1cc(C[C@H]2CCCN(C(C)c3cccc(C(F)(F)F)n3)C2)cc(C)n1` (mixture of isomers) [Product 61], in that order: 84% and 2.29 µM.
Taken in the same sequence, the figures for `COc1ncc(C(C)N2CCC[C@H](Cc3cc(C)nc(C)c3)C2)cn1` (mixture of isomers) [Product 65] were 93% and 0.933 µM.
With `COc1cccc(C(C)N2CCC[C@H](Cc3cc(OC)nc(C(F)(F)F)c3)C2)n1` (mixture of isomers) [Product 78], the maximal response (Emax) came out at 101% and the IC50 is 0.355 µM.
In the case of `COc1ccc(F)c(C(C)N2CC[C@@H](Cc3cc(C)nc(C)c3)C2)n1` (mixture of isomers) [Product 98], the Emax is 92% and the IC50 was 1.12 µM.
As to `COc1cc(C(C)N2CC[C@@H](Cc3cc(C)nc(C)c3)C2)c(F)cn1` (mixture of isomers) [Product 99], the maximal response (Emax) came to 91% and the IC50 was 0.646 µM.
Consider `CNC(=O)c1cc(C(C)N2CC[C@H](Cc3cc(C)nc(OC)c3)C2)n[nH]1` (mixture of isomers) [Product 101], for which the Emax turned out to be 75% and the IC50 is 3.16 µM.
For `COc1cc(C(C)N2CC[C@@H](Cc3cc(C)nc(OC)c3)C2)c(F)cn1` (mixture of isomers) [Product 102], the Emax turned out to be 85% and the IC50 is 1.7 µM.
As for `CNC(=O)c1cncc(C(C)N2CC[C@H](Cc3cc(C)nc(OC)c3)C2)c1` (mixture of isomers) [Product 103], the Emax came out at 85% and the IC50 was 1.66 µM.
Taken in the same sequence, the figures for `CC(=O)Nc1cc(C(C)N2CC[C@H](Oc3cc(C)nc(C)c3)C2)n[nH]1` (mixture of isomers) [Product 116] were 57% and 8.32 µM.
Take `CCOc1cc(C(C)N2CC[C@H](Cc3cc(C)nc(C(F)(F)F)c3)C2)n[nH]1` (mixture of isomers) [Product 120]: the Emax turned out to be 75% and the IC50 is 4.17 µM.
In the case of `COc1cccc(C(C)N2CC[C@H](Cc3cc(C)nc(C(F)(F)F)c3)C2)n1` (mixture of isomers) [Product 121], the Emax was determined as 96% and the IC50 was 0.741 µM.
As to `COc1cccc(C(C)N2CC[C@H](Cc3cc(OC)nc(C(F)(F)F)c3)C2)n1` (mixture of isomers) [Product 123], the Emax turned out to be 86% and the IC50 was 2.82 µM.
As for `COc1cc(C[C@H]2CCN(C(C)c3cccc(OC)n3)C2)ccn1` (mixture of isomers) [Product 124], the Emax amounted to 51% and the IC50 was 8.71 µM.
Regarding `CCOc1cc(C[C@H]2CCN(C(C)c3cccc(OC)n3)C2)ccn1` (mixture of isomers) [Product 125], the Emax stood at 76% and the IC50 was 4.17 µM.
Regarding `COc1cccc(C(C)N2CC[C@H](Cc3ccnc(OC(C)C)c3)C2)n1` (mixture of isomers) [Product 126], the Emax was determined as 56% and the IC50 is 9.55 µM.
For `COc1cccc(C(C)N2CC[C@H](Cc3ccnc(C(F)(F)F)c3)C2)n1` (mixture of isomers) [Product 127], the Emax amounted to 60% and the IC50 was 7.24 µM.
Turning to `COc1cc(C[C@H]2CCN(C(C)c3cc(NC(C)=O)[nH]n3)C2)cc(C)n1` (mixture of isomers) [Product 128], the maximum response (Emax) is 94% and the IC50 is 0.575 µM.
As for `COc1cc(C[C@H]2CCN(C(C)c3cccc(OC)n3)C2)cc(C)n1` (mixture of isomers) [Product 129], the Emax came out at 75% and the IC50 was 4.37 µM.
For the compound `COc1cc(C[C@@H]2CCN(C(C)c3cc(NC(C)=O)[nH]n3)C2)cc(C)n1` (mixture of isomers) [Product 131], the Emax was 97% and the IC50 is 0.38 µM.
On to `COCc1cc(C(C)N2CC[C@@H](Cc3cc(C)nc(OC)c3)C2)nn1C` (mixture of isomers) [Product 132], for which the Emax was 59% and the IC50 is 7.76 µM.
As for `CCOc1cnc(C(C)N2CC[C@@H](Cc3cc(C)nc(OC)c3)C2)o1` (mixture of isomers) [Product 133], the Emax was determined as 98% and the IC50 is 0.759 µM.
As to `CCOc1cc(C(C)N2CC[C@H](Cc3cc(C)nc(C)c3)C2)n[nH]1` (mixture of isomers) [Product 139], the Emax was found to be 73.3% and the IC50 was 3.98 µM.
Turning to `COc1cccc(C(C)N2CC[C@H](Cc3cccnc3OC)C2)n1` (mixture of isomers) [Product 140], the Emax was 29.3% and the IC50 is above 10 µM.
For `COc1cccc(C(C)N2CC[C@H](Cc3cncc(C(F)(F)F)c3)C2)n1` (mixture of isomers) [Product 141], in that order: 35.6% and above 10 µM.
As for `COc1cccc(C(C)N2CC[C@H](Cc3ccc(C(F)(F)F)nc3)C2)n1` (mixture of isomers) [Product 142], the Emax is 30.5% and the IC50 is above 10 µM.

The values are drawn from patent US20210300900A1, “OGA INHIBITOR COMPOUNDS” (Janssen Pharmaceutica NV, priority 2018, published 2021).
